A value given as a limit tells only on which side of the number the result lay.

Among the data in patent US8975406B2, “Compound useful for the treatment of degenerative and inflammatory diseases” (Galapagos N.V., priority 2011, dated 2015) are IC50 values, retold here.

Holding throughout (type): biochemical
In experiment [1] the target is T1, Recombinant human JAK3 catalytic domain (Homo sapiens, UniProt P52333).
T1 construct: catalytic domain (amino acids 795-1124; catalog number 08-046); purchased Carna Biosciences 08-046
T1 sequence (P52333 795-1124): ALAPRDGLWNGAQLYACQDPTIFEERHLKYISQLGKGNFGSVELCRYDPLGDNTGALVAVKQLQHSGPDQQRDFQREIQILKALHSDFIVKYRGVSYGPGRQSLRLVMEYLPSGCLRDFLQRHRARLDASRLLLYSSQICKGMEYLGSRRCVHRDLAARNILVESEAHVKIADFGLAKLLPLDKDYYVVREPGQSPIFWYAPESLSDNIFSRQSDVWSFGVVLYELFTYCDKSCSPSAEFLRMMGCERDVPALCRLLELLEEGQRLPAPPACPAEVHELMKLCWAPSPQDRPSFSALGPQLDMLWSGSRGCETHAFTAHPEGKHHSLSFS
Kind of experiment: JAK3 inhibition assay. Particulars: polyGT substrate, 33P-gamma-ATP filter assay, 1 μM ATP. As to the method: Recombinant human JAK3 catalytic domain (amino acids 795-1124; catalog number 08-046) was purchased from Carna Biosciences. 0.5 ng JAK3 protein was incubated with 2.5 μg polyGT substrate (Sigma catalog number P0275) in kinase reaction buffer (25 mM Tris pH 7.5, 0.5 mM EGTA, 10 mM MgCl2, 2.5 mM DTT, 0.5 mM Na3VO4, 5 mM b-glycerolphosphate, 0.01% Triton X-100, 1 μM non-radioactive ATP, 0.25 μCi ^33P-gamma-ATP (Perkin Elmer, catalog number NEG602K001MC) final concentrations) with or without 5 μL containing test compound or vehicle (DMSO, 1% final concentration), in a total volume of 25 μL, in a polypropylene 96-well plate (Greiner, V-bottom). After 45 min at 30° C., reactions were stopped by adding 25 μL/well of 150 mM phosphoric acid. All of the terminated kinase reaction was transferred to prewashed (75 mM phosphoric acid) 96 well filter plates (Perkin Elmer catalog number 6005177) using a cell harvester (Perkin Elmer). Plates were washed 6 times with 300 μL per well of a 75 mM phosphoric acid solution and the bottom of the plates was sealed. 40 μL/well of Microscint-20 was added, the top of the plates was sealed and readout was performed using the Topcount (Perkin Elmer). Kinase activity was calculated by subtracting counts per min (cpm) obtained in the presence of a positive control inhibitor (10 μM staurosporine) from cpm obtained in the presence of vehicle. The ability of a test compound to inhibit this activity was determined as: Percentage inhibition=((cpm determined for sample with test compound present−cpm determined for sample with positive control inhibitor)divided by(cpm determined in the presence of vehicle−cpm determined for sample with positive control inhibitor))*100.
Dose dilution series were prepared for the compounds enabling the testing of dose-response effects in the JAK3 assay and the calculation of the IC50 for each compound. Each compound was routinely tested at concentration of 20 μM followed by a ⅕ serial dilution, 10 points in a final concentration of 1% DMSO. When potency of compound series increased, more dilutions were prepared and/or the top concentration was lowered (e.g. 5 μM, 1 μM).

Another experiment has as its target T2, Recombinant human JAK2 (Homo sapiens, UniProt O60674).
T2 construct: catalytic domain (amino acids 808-1132; catalog number PV4210); GST; purchased Invitrogen PV4210
The experiment can be described thus: JAK2 Ulight-JAK1 peptide assay. The conditions noted are these: Ulight-JAK1(tyr1023) peptide, 7.5 μM ATP. The procedure: Recombinant human JAK2 (catalytic domain, amino acids […]; catalog number PV4210) was purchased from Invitrogen. 0.0125 mU of JAK2 was incubated with 25 nM Ulight-JAK1(tyr1023) peptide (Perkin Elmer catalog number TRF0121) in kinase reaction buffer (25 mM HEPES pH7.0, 0.01% Triton X-100, 7.5 mM MgCl2, 2 mM DTT, 7.5 μM ATP) with or without 4 μL containing test compound or vehicle (DMSO, 1% final concentration), in a total volume of 20 μL, in a white 384 Opti plate (Perkin Elmer, catalog number 6007290). After 60 min at room temperature, reactions were stopped by adding 20 μL/well of detection mixture (1× detection buffer (Perkin Elmer, catalog number CR97-100C), 0.5 nM Europium-anti-phosphotyrosine (PT66) (Perkin Elmer, catalog number AD0068), 10 mM EDTA). Readout is performed using the Envision with excitation at 320 nm and measuring emission at 615 nm (Perkin Elmer). Kinase activity was calculated by subtracting relative fluorescence units (RFU) obtained in the presence of a positive control inhibitor (10 μM staurosporine) from RFU obtained in the presence of vehicle. The ability of a test compound to inhibit this activity was determined as: Percentage inhibition=((RFU determined for sample with test compound present−RFU determined for sample with positive control inhibitor)divided by(RFU determined in the presence of vehicle−RFU determined for sample with positive control inhibitor))*100.
Dose dilution series were prepared for each compound enabling the testing of dose-response effects in the JAK2 assay and the calculation of the IC50 for the compound. Each compound is routinely tested at concentration of 20 μM followed by a ⅕ serial dilution, 10 points in a final concentration of 1% DMSO. When potency of compound series increases, more dilutions are prepared and/or the top concentration are lowered (e.g. 5 μM, 1 μM). The data are expressed as the average IC50 from the assays±standard error of the mean.

The next experiment deals with T3, Recombinant human JAK1 (Homo sapiens, UniProt P23458).
T3 construct: catalytic domain (amino acids 866-1154; catalog number PV4774); purchased Invitrogen PV4774
T3 sequence (P23458 866-1154): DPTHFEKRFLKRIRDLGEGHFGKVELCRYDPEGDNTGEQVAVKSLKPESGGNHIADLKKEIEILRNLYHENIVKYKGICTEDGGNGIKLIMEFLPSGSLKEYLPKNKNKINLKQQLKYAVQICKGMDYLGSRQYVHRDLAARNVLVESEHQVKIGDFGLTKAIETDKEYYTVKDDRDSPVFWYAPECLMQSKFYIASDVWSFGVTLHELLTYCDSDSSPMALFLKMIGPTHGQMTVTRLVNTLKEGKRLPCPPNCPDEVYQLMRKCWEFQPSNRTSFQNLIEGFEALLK
Kind of experiment: JAK1 Ulight-JAK1 peptide assay. Particulars: Ulight-JAK1(tyr1023) peptide, 7 μM ATP. As to the method: Recombinant human JAK1 (catalytic domain, amino acids 866-1154; catalog number PV4774) was purchased from Invitrogen. 1 ng of JAK1 was incubated with 20 nM Ulight-JAK1(tyr1023) peptide (Perkin Elmer catalog number TRF0121) in kinase reaction buffer (25 mM MOPS pH6.8, 0.01% Brij-35, 5 mM MgCl2, 2 mM DTT, 7 μM ATP) with or without 4 μL containing test compound or vehicle (DMSO, 1% final concentration), in a total volume of 20 μL, in a white 384 Opti plate (Perkin Elmer, catalog number 6007290). After 60 min at room temperature, reactions were stopped by adding 20 μL/well of detection mixture (1× detection buffer (Perkin Elmer, catalog number CR97-100C), 0.5 nM Europium-anti-phosphotyrosine (PT66) (Perkin Elmer, catalog number AD0068), 10 mM EDTA). Readout is performed using the Envision with excitation at 320 nm and measuring emission at 615 nm (Perkin Elmer). Kinase activity was calculated by subtracting relative fluorescence units (RFU) obtained in the presence of a positive control inhibitor (10 μM staurosporine) from RFU obtained in the presence of vehicle. The ability of a test compound to inhibit this activity was determined as: Percentage inhibition=((RFU determined for sample with test compound present−RFU determined for sample with positive control inhibitor)divided by(RFU determined in the presence of vehicle−RFU determined for sample with positive control inhibitor))*100.
Dose dilution series were prepared for the compounds enabling the testing of dose-response effects in the JAK1 assay and the calculation of the IC50 for the compound. Each compound is routinely tested at concentration of 20 μM followed by a ⅕ serial dilution, 10 points in a final concentration of 1% DMSO. When potency of compound series increases, more dilutions are prepared and/or the top concentration are lowered (e.g. 5 μM, 1 μM). The data are expressed as the average IC50 from the assays±standard error of the mean.

T2 sequence (O60674 808-1132): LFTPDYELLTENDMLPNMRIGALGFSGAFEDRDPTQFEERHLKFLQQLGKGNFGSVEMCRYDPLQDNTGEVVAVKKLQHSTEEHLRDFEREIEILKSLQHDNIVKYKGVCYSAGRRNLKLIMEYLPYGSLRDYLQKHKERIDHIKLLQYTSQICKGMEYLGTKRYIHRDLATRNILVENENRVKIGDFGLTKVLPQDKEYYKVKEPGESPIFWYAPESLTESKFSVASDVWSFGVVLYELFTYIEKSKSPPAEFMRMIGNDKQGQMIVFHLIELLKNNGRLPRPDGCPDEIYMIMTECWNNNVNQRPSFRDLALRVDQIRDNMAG

Consider `CC(=O)Nc1cc2c(-c3ccc(CC(=O)N4CCOCC4)cc3)cccn2n1` [Compound 36, N-(4-(4-(2-morpholino-2-oxoethyl)phenyl)pyrazolo[1,5-a]pyridin-2-yl)acetamide], for which the IC50 was 101 to 500 nM in experiment [1], 0.01 to 100 nM at Recombinant human JAK2 and 101 to 500 nM on Recombinant human JAK1.
As to `CC(=O)Nc1cc2c(-c3ccc(CN4CCC(S(C)(=O)=O)CC4)c(F)c3)cccn2n1` [Compound 29, N-(4-(3-fluoro-4((4-(methylsulfonyl)piperidin-1-yl)methyl)phenyl)pyrazolo[1,5-a]pyridin-2-yl)acetamide], the IC50 was 101 to 500 nM in experiment [1], 0.01 to 100 nM at Recombinant human JAK2 and 0.01 to 100 nM on Recombinant human JAK1.
Take `O=C(Nc1nn2cccc(-c3ccc(CN4CCS(=O)(=O)CC4)cc3)c2c1Cl)C1CC1` [Compound 13, Cyclopropanecarboxylic acid {4-[4-(1,1-dioxo-thiomorpholin-4-ylmethyl)-phenyl]-3-chloro-pyrazolo[1,5-a]pyridin-2-yl}-amide]: the IC50 was 101 to 500 nM in experiment [1], 0.01 to 100 nM on Recombinant human JAK2 and 0.01 to 100 nM on Recombinant human JAK1.
With `CS(=O)(=O)N1CC[C@@H](Oc2ccc(-c3cccn4nc(NC(=O)C5CC5)cc34)cc2)C1` [Compound 49, (R)-N-(4-(4-(1-(methylsulfonyl)pyrrolidin-3-yloxy)phenyl)pyrazolo[1,5-a]pyridin-2-yl)cyclopropanecarboxamide], the IC50 in experiment [1] was 0.01 to 100 nM; at Recombinant human JAK2 it was > 1000 nM; at Recombinant human JAK1, 0.01 to 100 nM.
For the molecule `CS(=O)(=O)N1CCN(Cc2ccc(-c3cccn4nc(NC(=O)C5CC5)cc34)cc2)CC1` [Compound 15, N-(4-(4-((4-(methylsulfonyl)piperazin-1-yl)methyl)phenyl)pyrazolo[1,5-a]pyridin-2-yl)cyclopropanecarboxamide], the IC50 (in experiment [1]; at Recombinant human JAK2; on Recombinant human JAK1) was 0.01 to 100 nM in each case.
`O=C(Nc1cc2c(-c3ccc4c(ccn4Cc4ccccc4)c3)cccn2n1)C1CC1` [Compound 3, N-(4-(1-benzyl-1H-indol-5-yl)pyrazolo[1,5-a]pyridin-2-yl)cyclopropanecarboxamide]: the IC50 is 0.01 to 100 nM in experiment [1], 101 to 500 nM at Recombinant human JAK2 and > 1000 nM at Recombinant human JAK1.
As to `CC(=O)Nc1cc2c(-c3ccc(CC(=O)N4CCCCC4)cc3)cccn2n1` [Compound 35, N-(4-(4-(2-oxo-2-(piperidin-1-yl)ethyl)phenyl)pyrazolo[1,5-a]pyridin-2-yl)acetamide], the IC50 in experiment [1] was in the range of 0.01 to 100 nM; on Recombinant human JAK2, 0.01 to 100 nM; at Recombinant human JAK1, 101 to 500 nM.
Regarding `O=C(Nc1nn2cccc(-c3ccc(CN4CCS(=O)(=O)CC4)cc3)c2c1Br)C1CC1` [Compound 12, Cyclopropanecarboxylic acid {4-[4-(1,1-dioxo-thiomorpholin-4-ylmethyl)-phenyl]-3-bromo-pyrazolo[1,5-a]pyridin-2-yl}-amide], the IC50 in experiment [1] lay in the range of 101 to 500 nM; on Recombinant human JAK2, 0.01 to 100 nM; on Recombinant human JAK1 it was 0.01 to 100 nM.
In the case of `CS(=O)(=O)C1CCN(Cc2ccc(-c3cccn4nc(NC(=O)C5CC5)cc34)cc2F)CC1` [Compound 18, N-(4-(3-fluoro-4-((4-(methylsulfonyl)piperidin-1-yl)methyl)phenyl)pyrazolo[1,5-a]pyridin-2-yl)cyclopropanecarboxamide], the IC50 lay in the range of 101 to 500 nM in experiment [1], 0.01 to 100 nM at Recombinant human JAK2 and 0.01 to 100 nM on Recombinant human JAK1.
In the case of `CC(=O)Nc1cc2c(-c3ccc(CC(=O)N4CC(F)(F)C4)cc3)cccn2n1` [Compound 34, N-(4-(4-(2-(3,3-difluoroazetidin-1-yl)-2-oxoethyl)phenyl)pyrazolo[1,5-a]pyridin-2-yl)acetamide], the IC50 in experiment [1] was 101 to 500 nM; at Recombinant human JAK2, 0.01 to 100 nM; at Recombinant human JAK1, 0.01 to 100 nM.
Turning to `N#Cc1ccc(COc2ccc(-c3cccn4nc(NC(=O)C5CC5)cc34)cc2)cn1` [Compound 9, N-(4-(4-((6-cyanopyridin-3-yl)methoxy)phenyl)pyrazolo[1,5-a]pyridin-2-yl)cyclopropanecarboxamide], the IC50 (in experiment [1]; on Recombinant human JAK2; on Recombinant human JAK1) was 0.01 to 100 nM in each case.
Take `C[C@@H](c1ccc(-c2cccn3nc(NC(=O)C4CC4)cc23)cc1)N1CCN(S(C)(=O)=O)CC1` [Compound 47, (S)-N-(4-(4-(1-(4-(methylsulfonyl)piperazin-1-yl)ethyl)phenyl)pyrazolo[1,5-a]pyridin-2-yl)cyclopropanecarboxamide]: the half-maximal inhibitory concentration (IC50) (in experiment [1]; at Recombinant human JAK2; at Recombinant human JAK1) was 0.01 to 100 nM throughout.
As to `O=C(Nc1cc2c(-c3ccc4[nH]ccc4c3)cccn2n1)C1CC1` [Compound 4, N-(4-(1H-indol-5-yl)pyrazolo[1,5-a]pyridin-2-yl)cyclopropanecarboxamide], the IC50 in experiment [1] is 0.01 to 100 nM; at Recombinant human JAK2 it was 0.01 to 100 nM; on Recombinant human JAK1, 101 to 500 nM.
`CS(=O)(=O)C1CCN(Cc2ccc(-c3cccn4nc(NC(=O)C5CC5)cc34)cc2)CC1` [Compound 17, N-(4-(4-((4-(methylsulfonyl)piperidin-1-yl)methyl)phenyl)pyrazolo[1,5-a]pyridin-2-yl)cyclopropanecarboxamide]: the figures for the IC50 (in experiment [1]; on Recombinant human JAK2; at Recombinant human JAK1) were 101 to 500 nM, 0.01 to 100 nM and 0.01 to 100 nM, respectively.
For `CC(=O)Nc1cc2c(-c3ccc(CN4CCN(S(C)(=O)=O)CC4)cc3)cccn2n1` [Compound 25, N-(4-(4-((4-(methylsulfonyl)piperazin-1-yl)methyl)phenyl)pyrazolo[1,5-a]pyridin-2-yl)acetamide], the IC50 lay in the range of 101 to 500 nM in experiment [1], 0.01 to 100 nM at Recombinant human JAK2 and 0.01 to 100 nM at Recombinant human JAK1.

Broadly, the IC50 is the point on the concentration scale where inhibition reaches its midpoint.
